The compounds below were run against T1, GlyT1 (Homo sapiens, UniProt P48067) (assay: Glycine Transporter 1 (GlyT1) uptake assay, scintillation proximity assay of [14C]-glycine uptake). Conditions: [14C]-glycine uptake; read-out: GlyT1 (pIC50) (converted).
T1 construct: expressed in transfected cells
T1 sequence (P48067 1-706): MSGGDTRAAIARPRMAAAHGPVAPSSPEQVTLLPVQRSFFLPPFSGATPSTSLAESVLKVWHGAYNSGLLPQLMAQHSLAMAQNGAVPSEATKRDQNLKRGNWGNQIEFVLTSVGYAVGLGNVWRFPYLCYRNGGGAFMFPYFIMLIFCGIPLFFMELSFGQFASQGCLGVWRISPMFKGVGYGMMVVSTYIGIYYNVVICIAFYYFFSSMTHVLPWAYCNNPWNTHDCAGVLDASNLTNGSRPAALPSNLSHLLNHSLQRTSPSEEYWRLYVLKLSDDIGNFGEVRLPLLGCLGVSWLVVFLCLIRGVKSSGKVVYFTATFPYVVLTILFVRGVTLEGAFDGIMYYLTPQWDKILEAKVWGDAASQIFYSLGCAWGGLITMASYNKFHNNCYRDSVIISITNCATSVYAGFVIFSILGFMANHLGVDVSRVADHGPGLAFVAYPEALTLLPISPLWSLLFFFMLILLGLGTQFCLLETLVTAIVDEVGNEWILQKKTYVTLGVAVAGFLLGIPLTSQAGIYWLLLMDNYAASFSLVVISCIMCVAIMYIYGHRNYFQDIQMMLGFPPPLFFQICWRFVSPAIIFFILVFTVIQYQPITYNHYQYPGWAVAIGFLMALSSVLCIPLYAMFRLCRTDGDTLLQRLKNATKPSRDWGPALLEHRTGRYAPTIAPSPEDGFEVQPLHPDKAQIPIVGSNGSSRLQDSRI
Type: cell-based
In short: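 IC50 values were derived by four-parameter logistic fitting of counts. The 2× compound solutions were made by 1:100 dilution into HBSS of DMSO serial dilutions.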

Row | SMILES | IC50 [nM]
1 | COc1c(S(C)(=O)=O)ccc(O[C@H](C)C(F)(F)F)c1C(=O)N1CC(Cc2ccc(C(F)(F)F)cc2)C1 [Example 149, 1-(3-Methanesulfonyl-2-methoxy-6-{[(2R)-1,1,1-trifluoropropan-2-yl]oxy}benzoyl)-3-{[4-(trifluoromethyl)phenyl]methyl}azetidine] | < 100
2 | COc1c(S(C)(=O)=O)ccc(O[C@@H](C)C(F)(F)F)c1C(=O)N1CC(c2cc(F)c(F)c(F)c2)C1 [Example 150, 1-(3-Methanesulfonyl-2-methoxy-6-{[(2S)-1,1,1-trifluoropropan-2-yl]oxy}benzoyl)-3-(3,4,5-trifluorophenyl)azetidine] | < 100
3 | COc1c(C#N)ccc(C2CC(F)(F)C2)c1C(=O)N1CC(c2ccc(C(F)(F)F)cn2)C1 [Example 151, 4-(3,3-Difluorocyclobutyl)-2-methoxy-3-{3-[5-(trifluoromethyl)pyridin-2-yl]azetidine-1-carbonyl}benzonitrile] | 100 to 1000
4 | COc1c(C#N)ccc(C2CC(F)(F)C2)c1C(=O)N1CC(c2ncc(C(F)(F)F)cc2Cl)C1 [Example 152, 3-{3-[3-Chloro-5-(trifluoromethyl)pyridin-2-yl]azetidine-1-carbonyl}-4-(3,3-difluorocyclobutyl)-2-methoxybenzonitrile] | < 100
5 | COc1c(C#N)ccc(C2CC(F)(F)C2)c1C(=O)N1CC(c2ncc(C(F)(F)F)cc2F)C1 [Example 153, 4-(3,3-Difluorocyclobutyl)-3-{3-[3-fluoro-5-(trifluoromethyl)pyridin-2-yl]azetidine-1-carbonyl}-2-methoxybenzonitrile] | < 100
6 | COc1c(S(C)(=O)=O)ccc(O[C@@H](C)C(F)(F)F)c1C(=O)N1CC(c2cc(F)c(F)cc2F)C1 [Example 154, 1-(3-Methanesulfonyl-2-methoxy-6-{[(2S)-1,1,1-trifluoropropan-2-yl]oxy}benzoyl)-3-(2,4,5-trifluorophenyl)azetidine] | < 100
7 | COc1c(S(C)(=O)=O)ccc(O[C@@H](C)C(F)(F)F)c1C(=O)N1CC(c2ccc(F)c(F)c2F)C1 [Example 155, 1-(3-Methanesulfonyl-2-methoxy-6-{[(2S)-1,1,1-trifluoropropan-2-yl]oxy}benzoyl)-3-(2,3,4-trifluorophenyl)azetidine] | < 100
8 | COc1c(S(C)(=O)=O)ccc(O[C@@H](C)C(F)(F)F)c1C(=O)N1CC(c2cc(F)cc(F)c2F)C1 [Example 156, 1-(3-Methanesulfonyl-2-methoxy-6-{[(2S)-1,1,1-trifluoropropan-2-yl]oxy}benzoyl)-3-(2,3,5-trifluorophenyl)azetidine] | < 100
9 | COc1c(S(C)(=O)=O)ccc(O[C@@H](C)C(F)(F)F)c1C(=O)N1CC(c2cccc(F)c2F)C1 [Example 157, 3-(2,3-Difluorophenyl)-1-(3-methanesulfonyl-2-methoxy-6-{[(2S)-1,1,1-trifluoropropan-2-yl]oxy}benzoyl)azetidine] | < 100
10 | COc1c(C#N)ccc(O[C@@H](C)C(F)(F)F)c1C(=O)N1CC(c2ccc(C3CCOCC3)cc2)C1 [Example 158, 2-Methoxy-3-{3-[4-(oxan-4-yl)phenyl]azetidine-1-carbonyl}-4-{[(2S)-1,1,1-trifluoropropan-2-yl]oxy}benzonitrile] | < 100
11 | COc1c(C#N)ccc(O[C@@H](C)C(F)(F)F)c1C(=O)N1CC(c2ccc(C3CCOCC3)cn2)C1 [Example 159, 2-Methoxy-3-{3-[5-(oxan-4-yl)pyridin-2-yl]azetidine-1-carbonyl}-4-{[(2S)-1,1,1-trifluoropropan-2-yl]oxy}benzonitrile] | < 100
12 | COc1c(C#N)ccc(O[C@@H](C)C(F)(F)F)c1C(=O)N1CC(c2ccc(C3CCOC(C)(C)C3)cc2)C1 (stereo partly drawn) [Example 160, 3-{3-[4-(2,2-Dimethyloxan-4-yl)phenyl]azetidine-1-carbonyl}-2-methoxy-4-{[(2S)-1,1,1-trifluoropropan-2-yl]oxy}benzonitrile] | < 100
13 | COc1c(C#N)ccc(O[C@H](C)C(F)(F)F)c1C(=O)N1CC(c2ccc(C3CCOCC3)cc2)C1 [Example 161, 2-Methoxy-3-{3-[4-(oxan-4-yl)phenyl]azetidine-1-carbonyl}-4-{[(2R)-1,1,1-trifluoropropan-2-yl]oxy}benzonitrile] | < 100
14 | COc1c(C#N)ccc(C2(F)CCC2)c1C(=O)N1CC(c2ccc(C3CCOCC3)cn2)C1 [Example 162, 4-(1-Fluorocyclobutyl)-2-methoxy-3-{3-[5-(oxan-4-yl)pyridin-2-yl]azetidine-1-carbonyl}benzonitrile] | 100 to 1000
15 | COc1c(C#N)ccc(O[C@@H](C)C(F)(F)F)c1C(=O)N1CC(c2ccc(C3CCOCC3)c(F)c2)C1 [Example 163, 3-{3-[3-Fluoro-4-(oxan-4-yl)phenyl]azetidine-1-carbonyl}-2-methoxy-4-{[(2S)-1,1,1-trifluoropropan-2-yl]oxy}benzonitrile] | < 100
16 | COc1c(S(C)(=O)=O)ccc(O[C@H](C)C(F)(F)F)c1C(=O)N1CC(c2ccc(C3CCOCC3)cc2)C1 [Example 164, 1-(3-Methanesulfonyl-2-methoxy-6-{[(2R)-1,1,1-trifluoropropan-2-yl]oxy}benzoyl)-3-[4-(oxan-4-yl)phenyl]azetidine] | < 100
17 | CCOc1ccc(C#N)c(OC)c1C(=O)N1CC(c2ccc(C3CCOCC3)cn2)C1 [Example 165, 4-Ethoxy-2-methoxy-3-{3-[5-(oxan-4-yl)pyridin-2-yl]azetidine-1-carbonyl}benzonitrile] | < 100
18 | COc1c(C#N)ccc(OC(C)C)c1C(=O)N1CC(c2ccc(C3CCOCC3)cn2)C1 [Example 166, 2-Methoxy-3-{3-[5-(oxan-4-yl)pyridin-2-yl]azetidine-1-carbonyl}-4-(propan-2-yloxy)benzonitrile] | 100 to 1000
19 | COc1c(S(C)(=O)=O)ccc(O[C@H](C)C(F)(F)F)c1C(=O)N1CC(c2ccc(C3CCC(F)(F)CC3)cc2)C1 [Example 167, 3-[4-(4,4-Difluorocyclohexyl)phenyl]-1-(3-methanesulfonyl-2-methoxy-6-{[(2R)-1,1,1-trifluoropropan-2-yl]oxy}benzoyl)azetidine] | < 100
20 | COc1c(S(C)(=O)=O)ccc(O[C@@H](C)C(F)(F)F)c1C(=O)N1CC(c2ccc(C3CCOCC3)cc2)C1 [Example 168, 1-(3-Methanesulfonyl-2-methoxy-6-{[(2S)-1,1,1-trifluoropropan-2-yl]oxy}benzoyl)-3-[4-(oxan-4-yl)phenyl]azetidine] | < 100
21 | C[C@H](Oc1ccc(C#N)c(Cl)c1C(=O)N1CC(c2ccc(C3CCOCC3)cn2)C1)C(F)(F)F [Example 169, 2-Chloro-3-{3-[5-(oxan-4-yl)pyridin-2-yl]azetidine-1-carbonyl}-4-{[(2S)-1,1,1-trifluoropropan-2-yl]oxy}benzonitrile] | < 100
22 | C[C@@H](Oc1ccc(C#N)c(Cl)c1C(=O)N1CC(c2ccc(C3CCOCC3)cn2)C1)C(F)(F)F [Example 170, 2-Chloro-3-{3-[5-(oxan-4-yl)pyridin-2-yl]azetidine-1-carbonyl}-4-{[(2R)-1,1,1-trifluoropropan-2-yl]oxy}benzonitrile] | < 100
23 | COc1c(C#N)ccc(O[C@@H](C)C(F)(F)F)c1C(=O)N1CC(c2ccc(C3CCC(F)(F)CC3)cn2)C1 [Example 171, 3-{3-[5-(4,4-Difluorocyclohexyl)pyridin-2-yl]azetidine-1-carbonyl}-2-methoxy-4-{[(2S)-1,1,1-trifluoropropan-2-yl]oxy}benzonitrile] | < 100
24 | COc1c(C#N)ccc(O[C@H](C)C(F)(F)F)c1C(=O)N1CC(c2ccc(C3CCC(F)(F)CC3)cn2)C1 [Example 172, 3-{3-[5-(4,4-Difluorocyclohexyl)pyridin-2-yl]azetidine-1-carbonyl}-2-methoxy-4-{[(2R)-1,1,1-trifluoropropan-2-yl]oxy}benzonitrile] | < 100
25 | COc1c(C#N)ccc(OCC2CC2)c1C(=O)N1CC(c2ccc(C#N)cc2)C1 [Example 173, 3-{[3-(4-Cyanophenyl)azetidin-1-yl]carbonyl}-4-(cyclopropylmethoxy)-2-methoxybenzonitrile] | < 100
26 | COc1cc(C2CN(C(=O)c3c(O[C@@H](C)C(F)(F)F)ccc(C#N)c3OC)C2)ccc1C#N [Example 174, 3-{[3-(4-Cyano-3-methoxyphenyl)azetidin-1-yl]carbonyl}-2-methoxy-4-{[(2S)-1,1,1-trifluoropropan-2-yl]oxy}benzonitrile] | < 100
27 | COc1c(C#N)ccc(C2CN(C(=O)c3c(O[C@@H](C)C(F)(F)F)ccc(C#N)c3OC)C2)c1Cl [Example 175, 3-Chloro-4-{1-[(3-cyano-2-methoxy-6-{[(2S)-1,1,1-trifluoropropan-2-yl]oxy}phenyl)carbonyl]azetidin-3-yl}-2-methoxybenzonitrile] | < 100
28 | CCOc1c(C#N)ccc(C2CN(C(=O)c3c(O[C@@H](C)C(F)(F)F)ccc(C#N)c3OC)C2)c1Cl [Example 176, 3-Chloro-4-[1-(3-cyano-2-methoxy-6-{[(2S)-1,1,1-trifluoropropan-2-yl]oxy}benzoyl)azetidin-3-yl]-2-ethoxybenzonitrile] | < 100
